The values below are quoted from earlier work in US20030068374A1, “Sustained release preparations of physiologically active compound hardly soluble in water and production process and use of the same” (priority 2000, published 2003).

The conditions of the data set: in water, 18° C.

For `[O]=[Zn]` [zinc oxide], the solubility is recorded as 0.42 mg/100 ml.
